Read-outs that look alike come from different tables or passages of the source.
Assays:
[1] = system: E. coli ATCC 25922 and clinically drug resistant isolated strains; assay: microbe, parasite or virus in culture; assay type: cell-based, Escherichia coli; conditions: 18 h
Description: (§1) The MIC were determined by a micro dilution method in Mueller-Hinton broth (MHB) ([Cuenca-Estrella et al., 2010]). The final concentration of bacterial suspension in MHB were 1.0×10^6 CFU/mL. The final concentration of MR-22 ranged 1 ~ 256 μg/mL in 96 wells plate broth at 37°C for 16~18 h. Imipenem was employed as positive control, bacterial grown without treatment as negative control and MHB as blank control. MIC determination was performed by reading the OD600 nm. Take 100 μL samples in holes that have never seen bacterial growth and place them on the LB agar board. The concentration of MR-22 with no bacterial growth was defined as the MBC.

E. coli ATCC 25922 [2] = assay: microbe, parasite or virus in culture; conditions: ATCC 25922, 18 h
Description: as §1

[3] = system: E. coli clinical strain E18; assay: microbe, parasite or virus in culture; conditions: clinical strain E18, 18 h
Summary of the method: (§2)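 For each clinical isolate, a final range of 1 ~ 256 μg/mL was tested in MHB at 1.0×10^6 CFU/mL, 37°C for 16~18 h. The MIC was judged by OD600 nm; the MBC was the concentration giving no colonies on LB agar.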

[4] = system: E. coli clinical strain E13; assay: microbe, parasite or virus in culture; conditions: clinical strain E13, 18 h
Summary of the method: as §2

[5] = system: E. coli clinical strain E08; assay: microbe, parasite or virus in culture; conditions: clinical strain E08, 18 h
Summary of the method: as §2

[6] = system: E. coli clinical strain E07; assay: microbe, parasite or virus in culture; conditions: clinical strain E07, 18 h
Summary of the method: as §2

[7] = system: E. coli clinical strain E19; assay: microbe, parasite or virus in culture; conditions: clinical strain E19, 18 h
Summary of the method: as §2

[8] = system: E. coli clinical strain E06; assay: microbe, parasite or virus in culture; conditions: clinical strain E06, 18 h
Summary of the method: as §2

[9] = system: E. coli clinical strain E21; assay: microbe, parasite or virus in culture; conditions: clinical strain E21, 18 h
Summary of the method: as §2

[10] = system: E. coli clinical strain E01; assay: microbe, parasite or virus in culture; conditions: clinical strain E01, 18 h
Summary of the method: as §2

[11] = system: E. coli clinical strain E15; assay: microbe, parasite or virus in culture; conditions: clinical strain E15, 18 h
Summary of the method: as §2

[12] = system: E. coli clinical strain E02; assay: microbe, parasite or virus in culture; conditions: clinical strain E02, 18 h
Summary of the method: as §2

[13] = system: E. coli clinical strain E17; assay: microbe, parasite or virus in culture; conditions: clinical strain E17, 18 h
Summary of the method: as §2

[14] = system: E. coli clinical strain E20; assay: microbe, parasite or virus in culture; conditions: clinical strain E20, 18 h
Summary of the method: as §2

[15] = system: E. coli clinical strain E10; assay: microbe, parasite or virus in culture; conditions: clinical strain E10, 18 h
Summary of the method: as §2

[16] = system: E. coli clinical strain E16; assay: microbe, parasite or virus in culture; conditions: clinical strain E16, 18 h
Summary of the method: as §2

[17] = system: E. coli clinical strain E04; assay: microbe, parasite or virus in culture; conditions: clinical strain E04, 18 h
Summary of the method: as §2

[18] = system: E. coli clinical strain E12; assay: microbe, parasite or virus in culture; conditions: clinical strain E12, 18 h
Summary of the method: as §2

[19] = system: E. coli clinical strain E11; assay: microbe, parasite or virus in culture; conditions: clinical strain E11, 18 h
Summary of the method: as §2

[20] = system: E. coli clinical strain E03; assay: microbe, parasite or virus in culture; conditions: clinical strain E03, 18 h
Summary of the method: as §2

[21] = system: E. coli clinical strain E09; assay: microbe, parasite or virus in culture; conditions: clinical strain E09, 18 h
Summary of the method: as §2

[22] = system: E. coli ATCC 25922 and E19; assay: Reactive oxygen species measurement (DCFH-DA); assay type: cell-based, Escherichia coli; conditions: DCFH-DA 10 μM, MR-22 1, 2, 4 × MIC, 1 h, 37°C; ex 488/em 525 nm
Description: The fluorescence probe 2’,7’-dichlorodihydrofluorescein diacetate (DCFH-DA) was used to measure the intracellular generation of ROS. The bacterial suspension (1.0 × 10^6 CFU/mL) were mixed with DCFH-DA (the final concentration of 10 μM) and incubated for at 37°C 30 min in the dark. After incubation, the suspensions were treated with MR-22 (1, 2, 4 × MIC) at the indicated concentrations for 1 h at 37°C. The fluorescence intensity was evaluated using a multi-function fluorescent enzyme marker with an excitation wavelength of 488 nm and an emission wavelength of 525 nm. N-acetylcysteine (NAC) at a concentration of 24 mM was employed as a control agent for the purpose of quenching the production of reactive oxygen species.

E. coli ATCC 25922 [23] = assay type: cell-based, Escherichia coli; conditions: 1 μg/ml trypsin, 37°C, mean ± SD
Description: (§3) MR-22 was mixed with a solution containing 1 μg/ml of trypsin and incubated at 37°C for 2 to 12h. Then, trypsin inactivation was carried out at 60°C for 30 min. The antimicrobial activity of the samples was tested to assess the activity of MR-22 and its analogs after the treatment by trypsin. The untreated MR-22 served as the control group for comparative analysis.

E. coli E19 = assay type: cell-based, Escherichia coli; conditions: 1 μg/ml trypsin, 37°C, mean ± SD
Description: as §3

H-MAKRRKKAKKKAKKAKKRRRRR-NH2 [MR-22]
MIC over all strains tested [1]: 4 ~ 32 μg/mL | MBC (E. coli ATCC 25922 [2]): 16 µg/mL | MIC (E. coli ATCC 25922 [2]): 16 µg/mL | MBC [3]: 8 µg/mL | MIC [3]: 8 µg/mL | MBC [4]: 16 µg/mL | MIC [4]: 16 µg/mL | MBC [5]: 8 µg/mL | MIC [5]: 8 µg/mL | MBC [6]: 16 µg/mL | MIC [6]: 16 µg/mL | MBC [7]: 32 µg/mL | MIC [7]: 32 µg/mL | MBC [8]: 8 µg/mL | MIC [8]: 8 µg/mL | MBC [9]: 8 µg/mL | MIC [9]: 8 µg/mL | MBC [10]: 16 µg/mL | MIC [10]: 16 µg/mL | MBC [11]: 4 µg/mL | MIC [11]: 4 µg/mL | MBC [12]: 16 µg/mL | MIC [12]: 16 µg/mL | MBC [13]: 32 µg/mL | MIC [13]: 32 µg/mL | MBC [14]: 8 µg/mL | MIC [14]: 8 µg/mL | MBC [15]: 16 µg/mL | MIC [15]: 16 µg/mL | MBC [16]: 16 µg/mL | MIC [16]: 16 µg/mL | MBC [17]: 8 µg/mL | MIC [17]: 8 µg/mL | MBC [18]: 16 µg/mL | MIC [18]: 16 µg/mL | MBC [19]: 16 µg/mL | MIC [19]: 16 µg/mL | MBC [20]: 16 µg/mL | MIC [20]: 16 µg/mL | MBC [21]: 16 µg/mL | MIC [21]: 16 µg/mL | ROS accumulation in bacteria [22]: increased significantly | Rate of inhibition after incubation with trypsin (E. coli ATCC 25922 [23]; 4 h): 22.32 ± 1.71% | Rate of inhibition after incubation with trypsin (E. coli ATCC 25922 [23]; 8 h): 3.40 ± 0.26% | Rate of inhibition after incubation with trypsin (E. coli ATCC 25922 [23]; 10 h): 1.85 ± 0.18% | Rate of inhibition after incubation with trypsin (E. coli ATCC 25922 [23]; 12 h): 1.33 ± 0.22% | Rate of inhibition after incubation with trypsin (E. coli E19; 4 h): 17.74 ± 2.88% | Rate of inhibition after incubation with trypsin (E. coli E19; 8 h): 5.41 ± 1.20% | Rate of inhibition after incubation with trypsin (E. coli E19; 10 h): 4.49 ± 1.54% | Rate of inhibition after incubation with trypsin (E. coli E19; 12 h): 0.64 ± 0.46%

Reference: paper PMC10847306, “The antibacterial activity and mechanism of a novel peptide MR-22 against multidrug-resistant Escherichia coli” (Frontiers in Cellular and Infection Microbiology, 2024)
